Eleven compounds from article PMC6332076, “Plasma Pharmacokinetics of Polyphenols in a Traditional Japanese Medicine, Jumihaidokuto, Which Suppresses Propionibacterium acnes-Induced Dermatitis in Rats” (Molecules, 2015) can be followed below.

Like-named read-outs stand apart in the source and are kept apart here.

Data set [1] in a line: in vivo. Details: species or system rat. Conditions: for AUC(0-t) / Cmax / tmax / half-life / concentration at 1 h / concentration at 24 h: rat plasma; for AUC(0-t) / Cmax / tmax / half-life: oral JHT 2 g/kg, non-compartmental; for concentration at 1 h / concentration at 24 h: rat, po, 2 g/kg; for concentration at 1 h: plasma, 1 h after oral JHT 2 g/kg; for concentration at 24 h: in vivo, 24 h after oral JHT 2 g/kg. Here is the method:
The higher dose than that in the pharmacological test was used to detect more constituents. […] In some experiments to deconjugate glucuronidated polyphenols, the samples were incubated with 75 mmol/L phosphate buffer containing 200 units/mL β-glucuronidase from Escherichia coli (Sigma-Aldrich) for 2 h at 37 °C.
For quantification of liquiritin, liquiritigenin, isoliquiritin, isoliquiritigeniin, hesperidin, hesperetin, castalagin, and all flavonoid glucuronides, 25–60 µL of standard solution and 25 µL of internal standard solution were added to 200–300 µL of plasma samples, followed by mixing well. Methanol (750–800 µL) was added to the solutions, followed by mixing and centrifugation (7000 g, 5 min). The supernatants were collected and dried at 40 °C under a stream of nitrogen gas. Then, the dried residue was dissolved in 50–100 μL of the HPLC mobile phase of each analytical method, and a 1–20 μL portion was injected into the LC-MS/MS systems. For quantification of genistein, luteolin, quercetin, (+)-catechin, (−)-epicatechin gallate, (±)-gallocatechin, Gallic acid, 4-O-methylgallic acid, hamamelitannin, 1,2,3,6-tetra-O-galloyl glucose, 1,2,3,4,6-penta-O-galloyl glucose, eugeniin, and 1-desgalloyl eugeniin, 200 μL of plasma samples were used. The amounts were measured using the same procedure, as described previously, except ethyl acetate (500 μL) and 2% acetic acid (100 μL), instead of methanol, were used concurrently as an extraction solution.
Plasma pharmacokinetic data were analyzed by non-compartmental modeling using Phoenix WinNonlin (version 6.3, Certara L.P., St. Louis, MO, USA) to determine various pharmacokinetic constants including the maximum concentration (Cmax), time to maximum concentration (tmax), apparent elimination half-life (t1/2), and area under the plasma concentration-time curve from time zero to the last observation (AUC0–last). The t1/2 was […] loge2/ke, where ke is the terminal elimination (at least three data points on the descending linear limb) rate constant.

The nature of data set [2]: Antioxidant assay, hydrogen peroxide-dependent oxidation (OxiSelect In vitro ROS/RNS Assay, DCFH-DiOxyQ). Conditions: for anti-ROS activity of glucuronide compared with its aglycone: serially-diluted concentrations; for Antioxidant activity, IC50, Hydrogen Peroxide: tested at 0.1-30 μmol/L, N = 3, n.d. = not detectable at the maximal concentration (30 μmol/L). Type of data set: biochemical. How it is done: Figure 4 Concentration dependency of flavonoid glucuronides and comparison with aglycones. Glucuronides and aglycones of flavonoid were assayed at serially-diluted concentrations to assess on hydrogen peroxide-dependent oxidation. Test samples were incubated with hydrogen peroxide for 5 min, followed by mixing with a probe of oxidant activity. After 15 min incubation, the hydrogen peroxide-dependent fluorescent intensity was measured. Data are shown as mean ± S.E. of triplicates. To assess ROS, OxiSelect In vitro ROS/RNS Assay kits ([…], Minneapolis, MN, USA) were used according to manufacturer’s instructions. Briefly, a test sample was incubated with 2.5 μmol/L of hydrogen peroxide for 5 min, and dichlorodihydrofluorescin DiOxyQ (DCFH-DiOxyQ) was added as a probe of oxidant activity. After 15 min incubation, the hydrogen peroxide-dependent fluorescent intensity was measured using a fluorescent plate reader (Infinite M200; Tecan, Wako Pure Chemical Industries). Percentage of inhibition of ROS was calculated using the following equation: [1 − (sample RFU^a − base RFU^b)/(control RFU^c − base RFU^b)] × 100 (1) where RFU is a relative fluorescent unit of reaction solution, a is RFU of DCFH-DiOxyQ with hydrogen peroxide and sample, b is RFU of DCFH-DiOxyQ alone, and c is RFU of DCFH-DiOxyQ with hydrogen peroxide.

Setting [3] is: rat plasma after oral JHT 2 g/kg.
[4] abbreviates: read-out: plasma concentration after β-glucuronidase treatment.
[5] abbreviates: read-out: plasma concentration before β-glucuronidase treatment.

For the compound `O=C(O)c1cc(O)c(O)c(O)c1` [Gallic acid], the “plasma concentration (not detected)” value in data set [1] (setting [3]) is on record as under 10 ng/mL.

As for `O=C(O)C1OC(Oc2cc(O)c3c(=O)c(-c4ccc(O)cc4)coc3c2)C(O)C(O)C1O` (stereo not drawn) [Genistein 7-O-glucuronide, genistein 7-O-glucuronide], the plasma concentration entry in data set [1] (rat plasma at 10 and 24 h after oral JHT) is on record as “approximately 50 ng/mL”. In data set [1], this compound displayed an exposure AUC(0-t) of 812 ng·h/mL, a Cmax of 53.4 ng/mL and a tmax of 24.0 H. This compound also came in with a tmax in data set [1] (listed as GEN-7G) of 24 H. In addition, the “inhibition (anti-ROS activity)” value in data set [2] (at 134 ng/mL, statistically significant, Figure 4) was 25%. Also, the “anti-ROS activity of glucuronide compared with its aglycone” value in data set [2] (Figure 4) is reported as “completely identical to that of their aglycones”. Moreover, the “Antioxidant activity, IC50, Hydrogen Peroxide” value (shortened to “Antioxidant activity, IC50”) in data set [2] worked out at 0.638 µg/mL.

Take `COc1ccc(C2CC(=O)c3c(O)cc(OC4OC(C(=O)O)C(O)C(O)C4O)cc3O2)cc1O` (stereo not drawn) [Hesperetin 7-O-glucuronide, hesperetin 7-O-glucuronide]: in data set [1], the AUC(0-t) was 190 ng·h/mL, the concentration peaked (Cmax) at 34.2 ng/mL, the half-life is 2.99 h and the tmax was 4.00 H. Moreover, the “anti-ROS activity of glucuronide compared with its aglycone” value in data set [2] (Figure 4) is “partially decreased”. Besides, the “Antioxidant activity, IC50” value in data set [2] is 4.27 µg/mL.

In data set [1], `O=C(C=Cc1ccc(O)cc1)c1ccc(O)cc1OC1OC(C(=O)O)C(O)C(O)C1O` (stereo not drawn) [Isoliquiritigenin 2′-O-glucuronide, isoliquiritigenin 2′-O-glucuronide] showed an AUC(0-t) of 11.6 ng·h/mL, a maximum concentration (Cmax) of 3.19 ng/mL and a tmax of 0.250 H. In addition, the “Antioxidant activity, IC50” value in data set [2] is 0.704 µg/mL.

As for `O=C(C=Cc1ccc(OC2OC(C(=O)O)C(O)C(O)C2O)cc1)c1ccc(O)cc1O` (stereo not drawn) [Isoliquiritigenin 4-O-glucuronide, isoliquiritigenin 4-O-glucuronide], in data set [1], the AUC(0-t) is 1.84 ng·h/mL, the Cmax came out at 0.388 ng/mL, the half-life was 5.68 h and the tmax is on record as 0.250 H.

In data set [1], `O=C(C=Cc1ccc(O)cc1)c1ccc(OC2OC(C(=O)O)C(O)C(O)C2O)cc1O` (stereo not drawn) [Isoliquiritigenin 4′-O-glucuronide, isoliquiritigenin 4′-O-glucuronide] showed an AUC(0-t) of 80.8 ng·h/mL, a Cmax of 15.8 ng/mL, a half-life of 2.25 h and a tmax of 0.250 H. For the same compound, in data set [2] (Figure 4), the “anti-ROS activity of glucuronide compared with its aglycone” value is listed as “completely identical to that of their aglycones”. For the same compound, in data set [2], the “Antioxidant activity, IC50” value is 0.691 µg/mL.

As for `O=C(O)[C@H]1O[C@@H](Oc2cc(O)c3c(=O)cc(-c4ccc(O)c(O)c4)oc3c2)[C@H](O)[C@@H](O)[C@@H]1O` [LTN-7G, luteolin 7-O-glucuronide], the “appearance / detection in plasma” value in data set [1] (setting [3]) is on record as “did not appear in the plasma”.

In data set [1], `O=C1CC(c2ccc(OC3OC(C(=O)O)C(O)C(O)C3O)cc2)Oc2cc(O)ccc21` (stereo not drawn) [Liquiritigenin 4′-O-glucuronide, liquiritigenin 4′-O-glucuronide] showed an AUC(0-t) of 522 ng·h/mL, a Cmax of 84.1 ng/mL, a half-life of 2.27 h and a tmax of 2.00 H. The “activity against ROS (in words)” value in data set [2] (hydrogen peroxide-dependent oxidation) is reported as “no activity”. The “anti-ROS activity of glucuronide compared with its aglycone” value in data set [2] (Figure 4) was “no activity”. For the same compound, in data set [2], the “Antioxidant activity, IC50” value is recorded as “not detectable even at the highest concentration”.

Regarding `O=C1C[C@@H](c2ccc(O[C@@H]3O[C@H](CO)[C@@H](O)[C@H](O)[C@H]3O)cc2)Oc2cc(O)ccc21` [Liquiritin], the concentration at 1 h was 39.1 ng/mL in data set [1] (setting [4]) and 2.4 ng/mL in data set [1] (setting [5]).

In the case of `O=C(O)[C@H]1O[C@@H](Oc2c(-c3ccc(O)c(O)c3)oc3cc(O)cc(O)c3c2=O)[C@H](O)[C@@H](O)[C@@H]1O` [QCN-3G, quercetin 3-O-glucuronide], the “appearance / detection in plasma” value in data set [1] (setting [3]) is “did not appear in the plasma”.

On to `O=c1c(-c2ccc(O)cc2)coc2cc(O)cc(O)c12` [genistein], for which the concentration at 24 h in data set [1] (setting [4]) is 78.3 ng/mL; in data set [1] (setting [5]), 0.975 ng/mL.

By AUC(0-t) is commonly meant the area under the concentration-time curve up to a stated or last time point. A lower AUC(0-t) goes with less exposure. What is called Cmax is the maximum level reached in the sampled fluid or tissue. As a reminder, the half-life is how long it takes for the measured level to halve. A low value points to fast loss.
